# Entries after “also recorded” stand apart in the source; their conditions may differ. Structures can show the parent of a compound that is named as a salt.
# Key:
# [1] = system: M. tuberculosis isolate 571/573-BAL; test: Planting in lecithin at low inocula, BACTEC 12B growth curves; format: cell-based, Mycobacterium tuberculosis; settings: CB-18 (17 μg/ml) combined with P/caz; inocula 165±54, 33±11 and 8±3 cfu
# Description: In this experiment the 571/573-BAL isolate was cultivated on 7H11-selective media, serially diluted in NALC/citrate to approximately 1,000×. In an attempt to examine how the inoculum impacted the results of this assay three different stocks were manufactured, one series in buffer and one series in CB-18. […] The planting solutions were manufactured by mixing these three stocks 1:1 with either buffer or a buffered solution of lecithin (Sigma, St. Louis, Mo.; Cat.#: P 5394 (7.5% lecithin was made up as a 100× concentrate in 100% ethanol (3 grams in 40 mls) and diluted in the Tris buffer of Example 1 immediately prior to use)). The final dilutions of three different planting solutions were approximately 5000×, 25,000×, and 100,000×. The final concentration of CB-18 and lecithin in the appropriate planting solutions was approximately 0.5 mM. […] The final concentration of both lecithin and CB-18 during incubation was approximately 17 μg/ml.
# Aliquots of the three stocks (i.e., 2,500×, 12,500× and 50,000×) were also taken for quantitative culture by plating on 7H10 plates (Becton Dickinson, Cockeysville, Md.). […] FIG. 5A presents the 5,000× series planted in either buffer or buffer containing lecithin, and FIG. 5B presents the 5,000× series planted in CB-18 or CB-18 combined with lecithin. FIG. 5C presents the 25,000× series planted in either buffer or buffer containing lecithin, and FIG. 5D presents the 25,000× series planted in CB-18 or CB-18 combined with lecithin. FIG. 5E presents the 100,000× series planted in either buffer or buffer containing lecithin, and FIG. 5F presents the 100,000× series planted in CB-18 or CB-18 combined with lecithin.
# [2] = system: M. tuberculosis isolates ATCC 27294 and 571/573-BAL; test: CB-18 and TMA-18 comparison, BACTEC 12B growth curves; format: cell-based, Mycobacterium tuberculosis
# Procedure: If the mechanism of CB-18's action was similar to that of the quaternary salts (i.e., generally deleterious), then some delay would be anticipated. For example, if the CB-18 effect was a consequence of the surface active property of the detergent, then disruption of cellular function would not only have nonspecific long term consequences, but would also be independent of the isolate. In an effort to examine the similarity in the mechanism, CB-18 was assayed in parallel with trimethyloctadecylammonium bromide (TMA-18 (Aldrich, Milwaukee, Wis., Cat.# 35,924-6): made as a 100× stock in 1:1, water:isopropanol similar to that described for CB-18 in Example 1). The experimental design is outlined in FIG. 6.
# In this experiment both ATCC 27294 and 571/573-BAL were cultivated on 7H11-selective media, and then serially diluted in NALC/citrate to 10,000×. The planting solution (i.e., the final dilution (50,000×)) was manufactured by diluting into either buffer, 0.5 mM CB-18, or 0.1 mM TMA-18 (all concentrations represent the final detergent concentration in the planting solution). […] The final concentration of CB-18 during incubation was approximately 17 μg/ml. The final concentration of TMA-18 during incubation was approximately 3.4 μg/ml. […] FIGS. 7A–7C show one experiment wherein ATCC 27294 cells were planted in the different solutions described above, and FIGS. 8A–8C show a parallel experiment wherein 571/573-BAL cells were planted in the same series.
# [3] = system: M. tuberculosis complex isolates ATCC 27294 and 571/573-BAL; test: CB-18 titration, BACTEC 12B growth curves; format: cell-based, Mycobacterium tuberculosis; settings: for CB-18 concentration at which growth was completely shut down / CB-18 concentration at which growth was impacted to a minor degree: absence of antibiotics
# [4] = system: M. avium complex isolates ATCC 25291 and 802-BAL; test: CB-18 titration, BACTEC 12B growth curves; format: cell-based; settings: MAC isolate 802-BAL; CB-18 alone (7–27 μg/ml tested)
# [5] = system: M. fortuitum complex isolates ATCC 6841 and 495-JHH; test: CB-18 titration, BACTEC 12B growth curves; format: cell-based; settings: M. fortuitum 495-JHH
# [6] = system: M. tuberculosis isolate 571/573-BAL; test: Detergent screen for induced susceptibility, BACTEC 12B growth curves; format: cell-based, Mycobacterium tuberculosis; settings: for effect on growth characteristics: 571/573-BAL
# [7] = system: M. tuberculosis isolates ATCC 27294 and 571/573-BAL; test: CB-18 vs. EDTA, BACTEC 12B growth curves; format: cell-based, Mycobacterium tuberculosis
# [8] = system: M. tuberculosis isolates ATCC 27294 and 571/573-BAL; test: Processing in CB-18 vs. planting in CB-18, BACTEC 12B growth curves
# [9] = system: M. tuberculosis isolates (Table 8); test: MTB isolates vs. antibiotic screen in the presence and absence of CB-18; settings: CB-18 17 μg/ml
# [10] = ATCC 27294, presence of antibiotics
smiles,measurement,setting,value
"CCCCCCCCCCCCCCCCCC[N+](C)(C)CCCC(=O)[O-] [CB-18, N-(3-carboxypropyl)-N,N-dimethyl-1-octadecanaminium, inner salt]",culture result of replicate bottles,[1],negative
same,effect on growth,"[2]; 571/573-BAL, 17 μg/ml CB-18, R.F., PANTA and P/cax",delays in all conditions became obvious
same,effect on growth,"[2]; 571/573-BAL, 17 μg/ml CB-18 with P/cax",dramatic delay
same,effect on growth,"[2]; ATCC 27294, 17 μg/ml CB-18 in PANTA alone",minor delays
same,effect on growth,"[2]; ATCC 27294, 17 μg/ml CB-18 with P/cax",significant delays
same,CB-18 concentration at which the isolate was viable,"[3]; 571/573-BAL, CB-18 alone",13 µg/mL
same,CB-18 concentration at which growth was completely shut down,[3]; 571/573-BAL,27 µg/mL
same,CB-18 concentration at which growth was impacted to a minor degree,[3]; 571/573-BAL,13 µg/mL
same,CB-18 concentration at which growth was absent,"[3]; 571/573-BAL, presence of antibiotics",13 µg/mL
same,CB-18 concentration at which growth was completely shut down,[3]; ATCC 27294,54 µg/mL
same,CB-18 concentration at which growth was impacted to a minor degree,[3]; ATCC 27294,27 µg/mL
same,CB-18 concentration at which growth was affected to a minor degree,[3]; [10],13 µg/mL
same,CB-18 concentration at which growth was nonexistent,[3]; [10],27 µg/mL
same,CB-18 concentration causing no alteration in growth,"[3]; ATCC 27294 and 571/573-BAL, absence of antibiotics (FIGS. 10A and 11A)",3 to 7 µg/mL
same,CB-18 concentration at which viability falls off,[4],not affected at the test concentrations; also recorded: Viability is unaffected at levels tested
same,CB-18 concentration at which the isolate was viable / able to grow to some degree,[5]; CB-18 alone,109 µg/mL
same,CB-18 concentration at which growth was affected to some degree,[5]; combined with cefoxitin,13 µg/mL
same,CB-18 concentration at which growth was completely inhibited,[5]; combined with cefoxitin,27 µg/mL
same,effect on growth characteristics,"[6]; CB-18 (17 μg/ml) combined with antibiotics (PANTA, P/cax)",synergistically deleterious
same,effect on growth characteristics,"[6]; CB-18 alone (17 μg/ml, R.F.)",had an impact on the growth characteristics
same,CB-18 effect in the methods of the invention,[6]; carboxybetaines tested,show the CB-18 effect
same,effect on growth,"[7]; 571/573-BAL, CB-18 alone 17 μg/ml",suppressed
same,effect on growth,"[7]; ATCC 27294, CB-18 alone 17 μg/ml, absence of MgCl2",unaffected
same,effect on growth,"[7]; ATCC 27294 and 571/573-BAL, CB-18 17 μg/ml with P/cax",synergistically deleterious
same,effect on growth characteristics,"[8]; 571/573-BAL, 90 minute exposure to CB-18 at 383 μg/ml, planted in buffer",no apparent effect on growth characteristics
same,CB-18 concentration in the culture bottle at which growth was unimpeded,"[8]; 571/573-BAL, processed in CB-18, then diluted",< 1 µg/mL
same,impact on growth characteristics,"[8]; ATCC 27294, processed in CB-18 (383 μg/ml) and/or planted in CB-18 (17 μg/ml final), PANTA or P/caz",generally unaffected
same,post antibiotic effect,[8]; cells processed in CB-18 but planted in buffer,no post antibiotic effect; also recorded: no “post antibiotic effect”
same,CB-18 induced sensitivity to antibiotics tested,[9]; 040-TBR,affected by CB-18 to some degree; also recorded: Minor CB-18 induced sensitivity to most antibiotics
same,effect of CB-18 on cax sensitivity (degree of exacerbation),"[9]; 040-TBR, P/cax","significantly affected by the presence of CB-18; also recorded: tested, however, cax sensitivity significantly"
same,CB-18 induced sensitivity to antibiotics tested,[9]; 52-96-BOL,affected by CB-18 to some degree; also recorded: Minor CB-18 induced sensitivity to most antibiotics
same,effect of CB-18 on cax sensitivity (degree of exacerbation),"[9]; 52-96-BOL, P/cax","significantly affected by the presence of CB-18; also recorded: tested, however, cax sensitivity significantly"
same,CB-18 induced sensitivity to antibiotics tested,[9]; 57-96-BOL (MDR),exacerbated in the presence of CB-18; also recorded: moderate CB-18 induced sensitivity to most
same,effect of CB-18 on cax sensitivity,"[9]; 061-TBR, P/cax",exacerbated by CB-18. Strain is INH resistant
same,CB-18 induced sensitivity to antibiotics tested,[9]; 512-JHH,Minor CB-18 induced sensitivity to most antibiotics
same,CB-18 induced sensitivity to antibiotics tested,[9]; 535-BAL,unaffected by CB-18 at this concentration
same,effect of CB-18 on cax sensitivity,"[9]; 535-BAL, P/cax",cax sensitivity was independent of CB-18
same,CB-18 induced sensitivity to antibiotics tested,[9]; 538-JHH,Minor CB-18 induced sensitivity to most antibiotics
same,CB-18 induced sensitivity to antibiotics tested,[9]; 571-BAL,remarkable induction of susceptibility for all drugs tested; also recorded: Dramatic CB-18 induced sensitivity
same,CB-18 induced sensitivity to antibiotics tested,[9]; 573-BAL,remarkable induction of susceptibility for all drugs tested; also recorded: Dramatic CB-18 induced sensitivity
same,effect of CB-18 on cax sensitivity,"[9]; 896-BAL, P/cax",slightly exacerbated by CB-18. Strain is multi
same,effect of CB-18 on cax sensitivity,"[9]; ATCC 27294, P/cax (ceftriaxone 8 μg/ml)",minor delays; also recorded: exacerbated by CB-18
same,CB-18 induced sensitivity to antibiotics tested,"[9]; ATCC 27294, PANTA, P/caz, P/cfp, P/cax, P/cft","little or no difference; also recorded: Minimal, if any, CB-18 induced sensitivity to"

# — US7067500B2, “Betaines as adjuvants to susceptibility testing and antimicrobial therapy” (priority 1997, dated 2006)
